From US8853394B2, “Pharmacokinetically improved compounds” (Surface Logix, Inc., priority 2006, dated 2014) come the findings set out here.

The Papp A→B is the apparent permeability from the apical to the basolateral side of a cell layer. A high value points to ready permeation. One may read the Papp B→A as how fast a substance crosses the layer from the basolateral side. The IC50 is the concentration that inhibits the measured activity by half. Usually half-life stands for the time needed for the level to fall by half in the phase considered. Lower therefore signals rapid decline. The term fraction unbound denotes free concentration divided by total concentration. Low readings indicate little free substance, high ones much free substance. By GI50 is commonly meant the concentration at which growth is held to half of that of the control. High values mean lower sensitivity of the cells, low ones greater sensitivity of the cells.

Data set [1] can be described thus: Caco-2 permeability. The settings on record: human. In kind it is in vitro ADME. The source says: Several model systems are available, employing monolayers of various cell types, for evaluation of active transport of pharmaceutically active substances. For example, monolayers of Caco-2 intestinal epithelial cells can be used to evaluate active transport of substances between the intestine and the bloodstream. When plated on a surface which allows the flow of material from apical to basolateral and vice versa, such cells form a biological membrane which can be used to simulate physiological absorption and bioavailability. In another example, mouse brain capillary endothelial cell (MBEC) lines have been established to evaluate active transport in and out of the central nervous system. Another example of such cells is HT29 human colon carcinoma cells. Further, monolayers expressing particular transporter proteins can be established using transfected cells. For example, Sasaki et al (2002) J. Biol. Chem. 8:6497 used a double-transfected Madin-Darby canine kidney cell monolayer to study transport of organic anions.
For orientation: Passage across Caco-2 layers is used to estimate intestinal permeability.

Data set [2] concerns PDE-3. The data set can be described thus: PDE-3 inhibition. In kind it is biochemical.
A short description of data set [3]: PAMPA permeability. In kind it is in vitro ADME. The settings on record: Hex, read-out: PAMPA Hex. Background: The PAMPA barrier holds no transporters, so it reflects passive diffusion.
Data set [4] in a line: Non-Spec Binding. In kind it is in vitro ADME.
Data set [5] in a line: T1/2 in human liver microsomes. The data set is classed as in vitro ADME. A general note: Microsomes from liver hold many membrane-bound enzymes, among them those of drug oxidation.
For data set [6], the system named is PDE-4 human. The data set can be described thus: PDE-4 human inhibition. In kind it is biochemical.
In data set [7] the test system is PDE-1. As to the kind of experiment: PDE-1 inhibition. In kind it is biochemical.
Data set [8] can be described thus: Protein Binding. In kind it is in vitro ADME. The note with it: human, human serum components. As to the method:
In general, protein binding is assessed by measuring the capacity of molecules of the invention to bind to one or more human serum components or mimics thereof. In one embodiment, suitable functional residues may be identified by screening of surfaces comprising such residues for their ability to resist adsorption of serum components, including, but not limited to serum proteins, and preferably human serum proteins. Candidate residues can be screened directly by attaching them to a solid support and testing the support for protein resistance. Alternatively, candidate residues are incorporated into, or linked to molecules of pharmaceutical interest. Such compounds may be synthesized on a solid support, or bound to a solid support after synthesis. In a non-limiting example of a direct binding assay, immobilized candidate functional residues or molecules incorporating such residues are tested for their ability to bind serum components. The serum components can be labeled with a signaling moiety for detection, or a labeled secondary reagent that binds to such serum components can be used.
A direct binding analysis can also be preformed in liquid phase. For example, test compounds can be mixed with one or more serum components in liquid phase, and the unbound molecules determined.

Data set [9] has as its target PDE5 (Homo sapiens, UniProt O76074). The data set can be described thus: PDE-5 human inhibition. The data set is classed as biochemical.
The target of data set [10] is T1, PDE-6 bovine (Bos taurus, UniProt P11541+P23439).
T1 sequence (P11541 2-856 limits assumed): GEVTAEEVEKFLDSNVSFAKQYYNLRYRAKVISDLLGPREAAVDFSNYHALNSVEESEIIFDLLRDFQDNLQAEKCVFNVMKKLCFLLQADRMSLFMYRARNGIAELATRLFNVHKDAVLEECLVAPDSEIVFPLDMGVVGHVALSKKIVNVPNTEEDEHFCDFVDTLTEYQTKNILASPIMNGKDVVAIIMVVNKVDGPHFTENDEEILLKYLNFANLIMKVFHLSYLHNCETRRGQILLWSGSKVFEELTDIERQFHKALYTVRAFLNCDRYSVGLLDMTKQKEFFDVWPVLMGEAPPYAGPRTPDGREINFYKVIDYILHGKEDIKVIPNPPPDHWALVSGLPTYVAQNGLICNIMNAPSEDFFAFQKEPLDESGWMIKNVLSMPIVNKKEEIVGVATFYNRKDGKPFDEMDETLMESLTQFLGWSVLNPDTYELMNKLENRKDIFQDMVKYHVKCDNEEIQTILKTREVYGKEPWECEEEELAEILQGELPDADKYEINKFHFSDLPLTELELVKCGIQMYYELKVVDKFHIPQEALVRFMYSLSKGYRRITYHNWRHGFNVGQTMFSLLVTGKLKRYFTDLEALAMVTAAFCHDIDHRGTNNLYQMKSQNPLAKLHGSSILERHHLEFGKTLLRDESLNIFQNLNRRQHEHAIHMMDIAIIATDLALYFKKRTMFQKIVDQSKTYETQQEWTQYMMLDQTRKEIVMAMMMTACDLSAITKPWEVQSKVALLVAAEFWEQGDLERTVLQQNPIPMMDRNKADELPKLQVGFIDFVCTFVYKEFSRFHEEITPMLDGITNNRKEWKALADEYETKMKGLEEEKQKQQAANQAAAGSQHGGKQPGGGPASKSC
T1 sequence (P23439 2-850 limits assumed): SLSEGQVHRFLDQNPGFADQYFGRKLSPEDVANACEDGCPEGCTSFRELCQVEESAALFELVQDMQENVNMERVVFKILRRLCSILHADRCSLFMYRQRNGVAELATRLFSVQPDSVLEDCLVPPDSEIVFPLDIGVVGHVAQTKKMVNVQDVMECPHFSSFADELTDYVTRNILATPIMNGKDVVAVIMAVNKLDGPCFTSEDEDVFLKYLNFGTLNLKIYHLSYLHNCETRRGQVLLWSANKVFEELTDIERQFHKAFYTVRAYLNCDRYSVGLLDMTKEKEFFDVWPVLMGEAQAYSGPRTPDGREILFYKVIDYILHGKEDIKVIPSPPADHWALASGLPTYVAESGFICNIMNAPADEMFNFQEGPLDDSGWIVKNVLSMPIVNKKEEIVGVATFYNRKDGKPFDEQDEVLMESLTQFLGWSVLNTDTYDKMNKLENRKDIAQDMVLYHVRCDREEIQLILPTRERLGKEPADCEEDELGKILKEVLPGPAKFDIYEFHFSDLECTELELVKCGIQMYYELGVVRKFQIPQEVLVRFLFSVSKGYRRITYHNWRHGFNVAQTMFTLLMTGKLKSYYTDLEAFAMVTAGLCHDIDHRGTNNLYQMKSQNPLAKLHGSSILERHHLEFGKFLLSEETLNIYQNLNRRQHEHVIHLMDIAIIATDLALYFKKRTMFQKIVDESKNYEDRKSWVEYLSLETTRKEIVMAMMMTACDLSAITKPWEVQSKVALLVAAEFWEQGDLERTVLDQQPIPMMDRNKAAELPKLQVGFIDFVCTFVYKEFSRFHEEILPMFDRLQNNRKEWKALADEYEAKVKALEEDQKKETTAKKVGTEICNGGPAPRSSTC
The data set can be described thus: PDE-6 bovine inhibition. The data set is classed as biochemical.

Data set [11] can be described thus: Chronic Cytoxicity (mouse 3T3). The settings on record: 3T3 cells. In kind it is cell-based.
Data set [12] in a line: T1/2 in rat liver microsomes. The data set is classed as in vitro ADME.

Molecule `CCCc1nc(C)c2c(=O)[nH]c(-c3cc(S(=O)(=O)N(CC)CCOC)ccc3OCC)nn12` [Compound 9] had an apparent permeability from apical to basolateral (Papp A→B) in [1] (AtoB) of 55.1 ×10⁻⁶ cm/s. Besides, the apparent permeability from basolateral to apical (Papp B→A) in [1] (BtoA) was 60.9 ×10⁻⁶ cm/s. For the same molecule, the IC50 in data set [2] was 697 nM; in data set [6], 1120 nM; in [7], 12.9 nM; in data set [9] it was 0.113 nM; in data set [10] it was 0.946 nM. Besides, the Papp in data set [3] stood at 133 ×10⁻⁶ cm/s. In [4], the “Non-Spec Binding (%)” value turned out to be 35.85%. For the same molecule, the half-life worked out at 9.83 min in data set [5] and 9.8 min in [12]. In data set [8], the unbound share (fraction unbound) was determined as 0.01. The concentration for 50% growth inhibition (GI50) in data set [11] was determined as 87300 nM. For the same molecule, the LC50 (50% lethal concentration) in data set [11] was > 100000 nM.
